Experimental data reported in patent US11046991B2, “Rapid preconcentration of viable bacteria using magnetic ionic liquid for PCR amplification and culture-based diagnostics” (priority 2017, dated 2021).
Where two headings read alike, the source gives them in different places.

Key:
[1] = Magnetic susceptibility, SQUID magnetometer; format: physicochemical; conditions: for μeff, effective magnetic moment: from magnetic susceptibility data, SQUID
Procedure: The μeff values for each exemplary MIL were determined using a Quantum Design MPMS SQUID magnetometer following procedures similar to those previously reported. (Y. Mudryk, P. Manfrinetti, V. Smetana, J. Liu, M. L. Fornasini, A. Provino, V. K. Pecharsky, G. J. Miller and K. A. Gschneidner, J. Alloys Compd, 2013, 557, 252-260).

[2] = Hydrophobicity comparison: 50 μL MIL in 12 mL water, vortexed and heated to 85° C.; format: physicochemical; conditions: 50 μL MIL in 12 mL deionized water, 85° C. for 10 minutes
Procedure: […] […] Vortexing the MIL droplet caused dispersion of the MIL into fine microdroplets that were suspended within the aqueous solution, ultimately settling at the bottom of the vessel. […] Each MIL was vortexed and heated to 85° C. for 10 minutes.

E. coli [3] = assay: PCR amplification of LB back-extraction solution after MIL-based extraction; conditions: for E. coli concentration at which bacterial pDNA was detected by PCR: cell recovery in LB media prior to PCR, 2 mL sample; for amplicon after extraction of cell filtrate (cell-free DNA): filtrate of 1.68×10^5 CFUs mL^−1 suspension through 0.22 μm filter
Procedure: (§1) A general schematic for the MIL-based cell extraction procedure is depicted in FIG. 10. In a 4 mL screw cap glass vial, a controlled volume (e.g., 10 μL) of MIL was added to 2 mL of diluted cell suspension and dispersed into microdroplets by vortex agitation for 15-120 s. Following the dispersive extraction, a 0.9 T magnetic field was applied to collect the cell-enriched MIL extraction phase. After the aqueous phase was decanted, the MIL was subjected to a static wash with 2 mL of deionized water to ensure that residual cell suspension was removed. The extracted E. coli was recovered from the MIL solvent by vortexing the MIL in 1 mL of LB media from 30 to 300 s. Following back-extraction, aliquots of the cell-enriched LB media were cultured on selective agar as well as analyzed by PCR.
Following the recovery of E. coli cells from the MIL extraction phase, an aliquot of the LB back-extraction solution was analyzed by PCR. […] The thermal protocol used for amplification of the MTAP gene was as follows: 5 min initial denaturation at 95° C. followed by 30 cycles of 30 s denaturation at 95° C., 45 s annealing at 54° C., and elongation for 45 s at 72° C.
After thermal cycling, the PCR products were mixed with 10 μL of bromophenol blue tracking dye solution (30% glycerol v/v) and loaded on a 1% agarose gel stained with SYBR Safe DNA gel stain. The PCR amplicon was subjected to electrophoresis at approximately 4 V cm^−1 and subsequently visualized using a transilluminator.
To improve detection limits, cells were recovered from the MIL phase using […] and a 1 μL aliquot of LB media was analyzed by PCR amplification. […] MILs as extraction media.
MIL. […] 1999; 37:2479-82). It should be noted that PCR assays are unable to distinguish between live and dead cells and, therefore, are complementary to microbiological culture for the determination of viable cells in a sample.

[4] = Thermal stability, MIL film in GC capillary with flame ionization detection; format: physicochemical; conditions: for onset of decomposition (thermal stability): 40° C. to 350° C. at 1° C./min
Procedure: The thermal stability of all exemplary MILs was tested by monitoring the thermal volatilization/decomposition of the MIL when the MIL was used as a stationary phase in gas chromatography. To achieve this, an approximate 0.25-0.28 μm film of IL/MIL was immobilized on the inner wall of a fused silica capillary. The IL/MIL coated capillary was then heated slowly in a GC oven and an ultra-sensitive flame ionization detector (FID) was used to detect any volatilization/decomposition of the IL/MIL. These tests were run using a temperature program starting at 40° C. and increased at 1° C./min to 350° C. on an Agilent 6850 gas chromatograph with a flame ionization detector (Santa Clara, Calif., USA). The [P66614^+] [Cl^−] IL was also coated under the same conditions and was used as a reference.

E. coli K12 cells = format: cell-based
Procedure: Since culture-based methods are contingent upon the isolation of viable bacteria, the detection of E. coli following MIL-based cell extraction is influenced by the cytotoxicity of MILs. To study the effect of MILs on the growth of E. coli, a 1 mL aliquot of LB media was inoculated with 8.0×10^2±0.5×10^2 CFUs mL^−1 and spiked with approximately 10 μL of a MIL. The mixture was agitated by vortex to simulate the recovery procedure after which a 100 μL aliquot of the suspension was plated on selective agar.

E. coli [5] = assay: MIL-based extraction of viable E. coli, selective culture and colony enumeration; conditions: aqueous solutions of 1.68×10^5 CFUs mL^−1
Procedure: For each cell extraction experiment, 2 mL of sterile LB media with 100 μg mL^−1 carbenicillin was inoculated with 0.5 μL of E. coli glycerol stock and incubated overnight at 37° C. and 225 rpm. The overnight culture was centrifuged at 2820 g for 8 min and the supernatant discarded. The cells were then vortexed for 15 s in 2 mL of deionized water and centrifuged once again at 2820 g for 8 min. Following a total of three washes, the cells were re-suspended in 1 mL of deionized water. The concentration of cells within the suspension was initially determined by measuring the optical density of the sample at 600 nm (OD600), where an OD600 equal to 1.000 represents 8×10^8 E. coli cells mL^−1. The bacterial suspension was diluted to an OD600 value of 0.021 (1.68×10^7 cells mL^−1), after which 10-fold serial dilutions were performed to yield the desired sample concentration. Since the sample concentrations were below the detection limit of the spectrophotometer, the final concentration of each sample (in CFUs mL^−1) was obtained using a plate counting method. Briefly, 15 μL of diluted cell suspension were mixed with 985 μL of LB media and vortexed for 3 min. A […] aliquot of the suspension was spread onto a selective LB agar plate with 100 μg mL^−1 carbenicillin and incubated overnight at 37° C. to obtain visible colonies.
as §1
To detect viable bacteria recovered from the MIL extraction solvent, a culture-based method selective for E. coli transformants was employed. Following MIL-based extraction, a 100 μL aliquot of the LB back-extraction solution was plated on LB agar containing 100 μg mL^−1 carbenicillin and incubated overnight at 37° C. Visible colonies were counted, tabulated, and compared to the colonies obtained for the sample prior to extraction. The enrichment factor (EF) from the MIL-based extraction was calculated by Equation 1, where CMIL is the concentration of CFUs within the MIL extraction phase and CS represents the concentration of CFUs in the bacterial suspension prior to extraction. EF=CMIL/CS Equation 1
To determine if MILs can extract viable E. coli cells, aqueous solutions of 1.68×10^5 CFUs mL^−1 were extracted with each of the seven MILs using an approach that is similar to one depicted in FIG. 10. […] [Co(hfacac)3^−] MILs with the greatest number of colonies obtained from the Ni(II)-based MIL extractions.

[6] = 1 second vial inversion (viscosity comparison); format: physicochemical; conditions: 1 second inversion of each MIL
Source text: FIG. 2 compares the viscosities of [P66614^+]2[MnCl4^2−], [P66614^+][Ni(hfacac)3^−], and [P66614^+][Nd(hfacac)4^−] by performing a 1 second inversion of each MIL.

[7] = 25° C.; cited from earlier work
[8] = Water solubility observation of intermediates and preliminary MILs (hydrophobicity testing); format: physicochemical; conditions: color change in the aqueous solution two hours after addition of the MIL
Procedure: The [P66614^+][Cl^−] IL is commercially available.
(§2) Pairing of intermediate 1a to an imidazolium-based cation was carried out for preliminary viscosity and hydrophobicity testing. A metathesis reaction was performed between 1-(6-hydroxyhexyl)-3-methylimidazolium chloride [MC6OHIM^+][Cl^−] and intermediate 1a to form [MC6OHIM^+] [Co(hfacac)3^−]. […] Since the broad applicability of hydrophobic MILs is very much dependent upon the ease with which they can be transferred using traditional liquid handling methods, the [P66614^+] cation was selected for preparation of the hfacac-based MILs.

[9] = Pipette transfer at room temperature (preliminary viscosity testing); format: physicochemical; conditions: neat MIL, without heating
Procedure: as §2

[10] = LB media with 8.0×10^2 CFUs mL^−1, approximately 10 μL of MIL, compared to unexposed standard

| Compound | μeff, effective magnetic moment [1] [μB] | dissolution into the aqueous phase [2] | E. coli concentration at which bacterial pDNA was detected by PCR (E. coli [3]) | influence on the growth of E. coli (E. coli K12 cells; [10]) | viscosity [7] [cP] | further results |
| --- | --- | --- | --- | --- | --- | --- |
| CCCCCCCCCCCCCC[P+](CCCCCC)(CCCCCC)CCCCCC.O=C(C=C([O-])C(F)(F)F)C(F)(F)F.O=C(C=C([O-])C(F)(F)F)C(F)(F)F.O=C(C=C([O-])C(F)(F)F)C(F)(F)F.[Co+2] [MIL 1, trihexyl(tetradecyl)phosphonium tris(hexafluoroacetylaceto)cobaltate(II)] | 4.3 | no sign of dissolution into the aqueous phase | 1.68×10^5 CFUs mL^−1 | – | – | sharp increase in the rate of decomposition [4]: around 200 °C; onset of decomposition (thermal stability) [4]: approximately 130 °C; influence on the growth of E. coli (E. coli K12 cells): little to no influence on the growth of E. coli |
| CCCCCCCCCCCCCC[P+](CCCCCC)(CCCCCC)CCCCCC.O=C(C=C([O-])C(F)(F)F)C(F)(F)F.O=C(C=C([O-])C(F)(F)F)C(F)(F)F.O=C(C=C([O-])C(F)(F)F)C(F)(F)F.[Mn+2] [MIL 2, [P66614^+] tris(hexafluoroacetylaceto)manganate(II)] | – | – | – | – | – | μeff ([1]; at higher temperatures): 5.5 μB; μeff ([1]; at lower temperatures): 5.8 μB; visible colonies after back-extraction with LB media and culture on selective agar (E. coli [5]): did not yield any visible colonies; degradation start, higher than the cobalt-based MIL [4]: approximately 25 °C; influence on the growth of E. coli (E. coli K12 cells): little to no influence on the growth of E. coli |
| CCCCCCCCCCCCCC[P+](CCCCCC)(CCCCCC)CCCCCC.O=C(C=C([O-])C(F)(F)F)C(F)(F)F.O=C(C=C([O-])C(F)(F)F)C(F)(F)F.O=C(C=C([O-])C(F)(F)F)C(F)(F)F.O=C(C=C([O-])C(F)(F)F)C(F)(F)F.[Dy+3] [MIL 4, [P66614^+] tetrakis(hexafluoroacetylaceto)dysprosate(III)] | 9.7 | – | 1.68×10^5 CFUs mL^−1 | little to no influence on the growth of E. coli | – | amplicon after extraction of cell filtrate (cell-free DNA) (E. coli [3]): No amplicon was detected |
| CCCCCCCCCCCCCC[P+](CCCCCC)(CCCCCC)CCCCCC.O=C(C=C([O-])C(F)(F)F)C(F)(F)F.O=C(C=C([O-])C(F)(F)F)C(F)(F)F.O=C(C=C([O-])C(F)(F)F)C(F)(F)F.O=C(C=C([O-])C(F)(F)F)C(F)(F)F.[Gd+3] [MIL 5, [P66614^+] tetrakis(hexafluoroacetylaceto)gadolinate(III)] | 7.7 | – | – | hindered the proliferation of cells | – | – |
| CCCCCCCCCCCCCC[P+](CCCCCC)(CCCCCC)CCCCCC.O=C(C=C([O-])C(F)(F)F)C(F)(F)F.O=C(C=C([O-])C(F)(F)F)C(F)(F)F.O=C(C=C([O-])C(F)(F)F)C(F)(F)F.O=C(C=C([O-])C(F)(F)F)C(F)(F)F.[Nd+3] [MIL 6, [P66614^+] tetrakis(hexafluoroacetylaceto)neodymate(III)] | 2.8 | no sign of dissolution into the aqueous phase | 1.68×10^5 CFUs mL^−1 | little to no influence on the growth of E. coli | – | movement down the vial [6]: flow easily toward the bottom of the vial; amplicon after extraction of cell filtrate (cell-free DNA) (E. coli [3]): No amplicon was detected; onset of decomposition (thermal stability) [4]: around 225 °C |
| CCCCCCCCCCCCCC[P+](CCCCCC)(CCCCCC)CCCCCC [No. 1, [P66614^+] tetrachloroferrate(III), reference compound] | – | dissolving into the aqueous solution | – | hindered the proliferation of cells | 650 | – |
| C[n+]1ccn(CCCCCCO)c1.O=C(C=C([O-])C(F)(F)F)C(F)(F)F.O=C(C=C([O-])C(F)(F)F)C(F)(F)F.O=C(C=C([O-])C(F)(F)F)C(F)(F)F.[Co+2] [[MC6OHIM^+] [Co(hfacac)3^−]] | – | – | – | – | – | solubility in water [8]: soluble in water; transfer with a pipette [9]: could not be transferred with a pipette |
| CCCCCCCCCCCCCC[P+](CCCCCC)(CCCCCC)CCCCCC.CCCCCCCCCCCCCC[P+](CCCCCC)(CCCCCC)CCCCCC.CCCCCCCCCCCCCC[P+](CCCCCC)(CCCCCC)CCCCCC.[Cl][Gd-3]([Cl])([Cl])([Cl])([Cl])[Cl] [[P66614]3[GdCl6^3−], [P66614] hexachlorogadolinate(III)] | – | – | – | – | 18390 | – |
| CCCCCCCCCCCCCC[P+](CCCCCC)(CCCCCC)CCCCCC.CCCCCCCCCCCCCC[P+](CCCCCC)(CCCCCC)CCCCCC.[Cl][Mn-2]([Cl])([Cl])[Cl] [[P66614^+]2[MnCl4^2−], [P66614^+] tetrachloromanganate(II), reference compound] | – | – | – | – | 75230 | movement down the vial [6]: little to no movement down the vial |
| CCCCCCCCCCCCCC[P+](CCCCCC)(CCCCCC)CCCCCC.[Cl-] [[P66614^+] [Cl^−], Trihexyl(tetradecyl)phosphonium chloride, reference compound] | – | – | – | – | – | thermal decomposition compared with the MILs ([4]; reference): lowest thermal decomposition |
